This note sets out measurements from EP3409671B1, “ISOTHIAZOLE DERIVATIVES AS GPR120 AGONISTS FOR THE TREATMENT OF TYPE II DIABETES” (Janssen Pharmaceutica NV, priority 2014, dated 2015).

In the assay the target is T1, long form of human GPR120 (Homo sapiens, UniProt Q5NUL3).
T1 construct: host or cells: PathHunter CHO-K1 GPR120 β-Arrestin Cell Line
T1 sequence (Q5NUL3 1-377 isoform Q5NUL3-1): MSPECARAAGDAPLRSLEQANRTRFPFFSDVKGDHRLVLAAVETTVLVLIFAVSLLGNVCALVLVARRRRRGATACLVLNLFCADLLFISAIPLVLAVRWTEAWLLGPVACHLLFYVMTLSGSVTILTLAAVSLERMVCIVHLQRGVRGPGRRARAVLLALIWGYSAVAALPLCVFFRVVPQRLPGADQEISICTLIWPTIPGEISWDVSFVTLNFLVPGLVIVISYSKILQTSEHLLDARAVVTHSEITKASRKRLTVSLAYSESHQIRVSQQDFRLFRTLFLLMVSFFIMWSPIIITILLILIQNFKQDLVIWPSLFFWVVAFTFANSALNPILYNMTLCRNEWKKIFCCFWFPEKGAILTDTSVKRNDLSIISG
Put plainly: Human GPR120 DiscoveRx PathHunter Beta-Arrestin assay, Procedure β-arrestin A. The class given is cell-based. The settings on record: PathHunter CHO-K1 GPR120 β-Arrestin Cell Line, long form of human GPR120, 3000 cells per well; read-out: hGPR120 β-arrestin A EC50. An excerpt: The binding of an agonist (medium/long chain fatty acids or small molecule agonists) to the G-protein-coupled receptor GPR120 activates phospholipase C, leading to release of intracellular Ca^+2 through the generation of inositol 1,4,5-trisphosphate (InsP3 or IP3). GPR120 activation can also trigger intracellular signaling via recruitment of Beta-Arrestin. In the present method, agonist-induced activation of the human GPR120 receptor is monitored through the use of PathHunter CHO-K1 GPR120 Beta-Arrestin Cell Line engineered by DiscoveRx, as detailed below. […]
Under these conditions, these fragments can interact and form an active Beta-gal enzyme complex through Enzyme Fragment Complementation (EFC). This active Beta-gal complex can enzymatically hydrolyse the substrate to produce a detectable light signal; therefore, activation as a function of agonist concentration can be expressed as an EC50 value to determine relative compound activities. […]
The plates were read on an EnVision instrument, using Protocol name: Luminescence, Plate type: 384 Costar, Measurement height: 3 mm, Measurement time: 1s, Aperture: 384 Plate aperture. The %activity relative to the positive control was calculated using the following equation: %Activity = (Countcompound −Countvehicle)/(Countpostivite control −Countvehicle) × 100% [formula] […]

What is called EC50 is the concentration at which the effect is half-maximal.

Consider `O=C(O)CCc1ccc(OCc2c(C(F)(F)F)nsc2-c2ccc(Cl)cc2)c(Cl)c1Cl` [Cpd 55, 3-(2,3-dichloro-4-[[5-(4-chlorophenyl)-3-(trifluoromethyl)-1,2-thiazol4-yl]methoxy]phenyl) propanoic acid], for which the EC50 was determined as 176 nM.

For the compound `O=C(O)CCc1cc(F)c(OCc2c(Cl)nsc2-c2ccc(Cl)cc2)c(F)c1` [Cpd 75, 3-(4-[[3-chloro-5-(4-chlorophenyl)-1,2-thiazol-4-yl]methoxy]-3,5-difluorophenyl)propanoic acid], the EC50 is 141 nM.
